In US20240165250A1, “Bifunctional Folate Receptor Binding Compounds” (Lycia Therapeutics, Inc., priority 2021, published 2024):
Where two headings read alike, the source gives them in different places. Values belong to the compound of their own block, whether it stands above or below them.

Key:
TNFα trimer = target: T1, TNFα trimer (Homo sapiens, UniProt P01375); test: SPR binding kinetics of compounds to TNFα trimer (single-cycle kinetics); settings: for kon: read-out: ka
T1 construct: Ligand MW (Da) 53729.8; fused on or other part: Three copies of soluble TNF-alpha joined by linkers into one polypeptide; The protein is biotinylated and captured on immobilised streptavidin
T1 sequence (P01375 88-233 limits assumed): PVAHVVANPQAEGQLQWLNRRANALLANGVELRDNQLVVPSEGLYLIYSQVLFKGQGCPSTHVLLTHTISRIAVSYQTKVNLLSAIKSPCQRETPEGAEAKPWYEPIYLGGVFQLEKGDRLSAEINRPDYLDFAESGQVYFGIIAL
Protocol: Streptavidin 100 μg/mL Streptavidin (Invitrogen Cat #:434302) diluted in 10 mM sodium acetate, pH 4.5) was immobilized to both the reference and active surfaces as described in Example 51. The surfaces were conditioned with three injections of running Buffer (10 mM HEPES, 150 mM NaCl, 0.05% T20, pH 7.5, 2% DMSO) at a flow rate of 10 μL/min, Contact time: 60 s. Flow rate: 10 μL/min. The active surface was treated with biotinylated linked TNFα timer 20 μg/mL diluted in running buffer at a flow rate of 5 μL/min contact time: 600 s, yielding a final response of ˜3000 RU. Example compounds were then serially diluted 1:1 in running buffer (10 mM HEPES, 150 mM NaCl, 0.05% T20, pH 7.5, 2% DMSO) from 30 uM to 937.5 nM and flowed over the active and reference surfaces from lowest concentration to greatest concentration in the single-cycle kinetics format, and then allowed to dissociate in running buffer for 7200 s, at 30 μL/min. Sensorgrams were solvent corrected, double-referenced, and the data fitted and analyzed in Biacore Insight Evaluation Software Version 3.0.11.15423.

FOLR2 = target: T2, FOLR2 (Homo sapiens, UniProt P14207); test: SPR binding kinetics of compounds to folate receptor (FOLR2); settings: immobilized FOLR2, compound 3.125-100 nM
T2 construct: purchased Acro Biosystems FO2-H5223-100 μg
T2 sequence (P14207 17-230): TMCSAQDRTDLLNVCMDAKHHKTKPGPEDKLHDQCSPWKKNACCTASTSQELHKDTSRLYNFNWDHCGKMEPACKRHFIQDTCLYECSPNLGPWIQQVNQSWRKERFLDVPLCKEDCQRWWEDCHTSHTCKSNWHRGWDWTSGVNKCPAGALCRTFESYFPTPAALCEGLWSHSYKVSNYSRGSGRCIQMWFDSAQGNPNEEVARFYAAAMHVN
Protocol: A Biacore 8K+ was used to measure the association and dissociation rates of example compounds to FOLR2 (Acro Biosystems, Cat: FO2-H5223-100 μg). Briefly, FOLR2 was reconstituted according to the manufacture's instructions to 200 μg/mL. Both the active and reference surfaces of a Cytiva CM5 Series S Sensor Chip were activated with a 1:1 mixture of 400 mM EDC and 100 mM NHS for 420 s at 10 μL/min. 25 μg/mL FOLR2 diluted in Sodium Acetate pH 5.5 was injected on the active channel (Flow Cell 2) for 420 s at 10p/min. Both the reference and active surfaces were then capped with 1M ethanolamine, pH 8.5 for 420 s, achieving an immobilization level of ˜4200 RU. Example compounds were serially diluted 1:1 in running buffer (10 mM HEPES, 150 mM NaCl, 0.05% T20, pH 7.5, 2% DMSO) from 100 nM to 3.125 nM and flowed over the active and reference surfaces for 120 s, and then allowed to dissociate in running buffer for 600 s, at 30 uL/min. The FOLR2 immobilized active surface and the reference surface were regenerated with a 30 s pulse of Sodium Acetate pH 5.5 at 30 μL/min. Sensorgrams were solvent corrected, double-referenced, and the data fitted and analyzed in Biacore Insight Evaluation Software Version 3.0.11.15423.
FIG. 1 illustrates the SPR sensorgrams for various concentrations of compound I-21 (3.125 nM to 100 nM) to folate receptor 2 (FOLR2), illustrating 1:1 binding.

TNFα [1] = target: T3, TNFα (Homo sapiens, UniProt P01375+P14207); test: Compound mediated uptake of TNFα-pHrodo in THP-1 cells (flow cytometry); type: cell-based; settings: 125 nM-20 μM, 24 hrs, FIG. 4
T3 construct: made in house
T3 sequence (P01375 77-233 limits assumed, species assumed): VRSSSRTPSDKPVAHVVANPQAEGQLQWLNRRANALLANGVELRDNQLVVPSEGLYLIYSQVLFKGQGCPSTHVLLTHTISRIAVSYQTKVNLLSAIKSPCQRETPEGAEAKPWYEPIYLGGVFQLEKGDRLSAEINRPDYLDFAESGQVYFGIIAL
T3 sequence (P14207 17-230 limits assumed, species assumed): as the sequence (P14207 17-230) above
Protocol: THP-1 cells, a monocytic leukemia cell line that endogenously express folate receptor beta, were used as a model system to measure example compound stimulated uptake of in-house produced TNFα conjugated to the pH sensitive fluorescent dye pHrodo green (ThermoFisher Scientific #P35369).
THP-1 cells were maintained in RPMI (Gibco #61870143) with 10% v/v FBS (VWR #89510-188) with 2 mM L-alanyl-L-glutamine dipeptide, 100 units/ml penicillin and 100 ug/ml streptomycin (Gibco #15140148). Cells were pelleted, resuspended in folate-free RPMI (Gibco #27016021) and seeded at 50,000 cells per well of a 96 well plate. Example compound was added to each well as a log 2 dilution series ranging from 20 μM to 125 nM final concentration. Cells were incubated for 24 hrs and washed/resuspended in phosphate buffered saline (pH 7.4) with 1% w/v BSA. Uptake was measured using a Novocyte Advanteon Flow Cytometer (Agilent Technologies) with the […] and FITC detection configuration.

TNFα [2] = target: T3, TNFα; test: Compound mediated degradation of TNFα in THP-1 cells (pulse-chase, TNFα-biotin blot); type: cell-based; settings: PMA differentiated THP-1 cells, compound 10 μM, FIG. 5
Protocol: To measure degradation of internalized TNFα, a pulse-chase experiment was performed whereby cells were treated with +/− example compounds and/or +/− protease inhibitors and incubated for 1 hr in media containing TNFα-biotin to allow uptake and then washed and incubated 90 minutes in fresh media without TNFα to allow degradation. Samples were collected after the pulse phase (60 min) and chase phase (90 min) to measure uptake and degradation, respectively.
THP-1 cells were seeded at 100,000 cells per well of 12 well plate with 1 mL RPMI+10% w/w FBS+1× penicillin/streptomycin and differentiated using 20 ng/mL phorbol myristate acetate (Sigma-Aldrich #P8139) for 72 hrs. After 72 hrs media was replaced with 1 ml RPMI+10% v/v FBS+1× penicillin/streptomycin and TNFα-biotin (AcroBiosystems #50-201-9879) was added to 12.5 nM final concentration. Where noted example compound was added at 10 μM final concentration and protease inhibitors were added at 100 ug/ml final concentration for leupeptin (Sigma-Aldrich #L2884) or 1 μg/ml final concentration for pepstatin A (Sigma-Aldrich #BP26715). […] Relative quantification of bands was performed using the ImageLab software (BioRad) with endogenously biotinylated proteins serving as endogenous controls. […]

TNFα [3] = target: T3, TNFα; test: Compound mediated depletion of HiBiT-TNFα from the medium of THP-1 cells; type: cell-based; settings: compound 10 μM, FIG. 6
Excerpt: An in-house recombinantly expressed and purified N-terminal fusion of HiBiT with TNFα was used to measure example compound-stimulated depletion from the media. HiBiT and largeBiT are split nanoluciferase polypeptides that result in complementation of luciferase activity in the presence of both polypeptides. The level of HiBit-TNFα in the media over time can be measure by sampling the media and mixing with the Nano-Glo HiBiT Extracellular Detection Reagent (Promega Corporation) containing the largeBiT polypeptide and nanoluciferase substrate.
THP-1 cells were seeded at 100,000 cells per well of 12 well plate with 1 mL RPMI+10% w/w FBS+1× penicillin/streptomycin and differentiated using 20 ng/mL phorbol myristate acetate (Sigma-Aldrich #P8139) for 72 hrs. After 72 hrs the growth medium was replaced with 1 ml RPMI+10% v/v FBS+1× penicillin/streptomycin containing 12.5 nM HiBit-TNFα. Where noted example compound was added at 10 μM final concentration. The medium was sampled (50 μl) at 0, 24, 48 and 96 hr and luciferase activity was measured using the Nano-Glo HiBiT Extracellular Detection Reagent.

[4] = SPR single cycle kinetics, immobilized TNFα trimer
[5] = SPR single cycle kinetics, immobilized TNFα trimer, compound 937.5 nM-30 uM

Kd (TNFα trimer; [4]): 4.18 nM
kon (TNFα trimer; [5]): 874 M⁻¹ s⁻¹
Structure (SMILES): Nc1nc(O)c2nc(CNc3ccc(C(=O)N[C@@H](CCC(=O)NCCOCCOCCOCCOCc4cn(CCCCCOc5ccc(-c6ccc7nc(COc8cccc(N9CCCC9=O)c8)n(Cc8ccccc8OC(F)F)c7c6)cn5)nn4)C(=O)O)cc3)cnc2n1 [Compound I-25, (S)-18-(4-(((2-amino-4-hydroxypteridin-6-yl)methyl)amino)benzamido)-1-(1-(5-((5-(1-(2-(difluoromethoxy)benzyl)-2-((3-(2-oxopyrrolidin-1-yl)phenoxy)methyl)-1H-benzo[d]imidazol-6-yl)pyridin-2-yl)oxy)pentyl)-1H-1,2,3-triazol-4-yl)-15-oxo-2,5,8,11-tetraoxa-14-azanonadecan-19-oic acid]

Kd (FOLR2): 0.833 nM
kon (FOLR2; read-out: ka): 5.57e+06 M⁻¹ s⁻¹
Kd (TNFα trimer; [4]): 80.5 nM
kon (TNFα trimer; [5]): 963 M⁻¹ s⁻¹
Structure (SMILES): Cc1nc2cc(F)c(-c3cnc(OCCCCCn4cc(COCCOCCOCCOCCNC(=O)[C@H](CCC(=O)O)NC(=O)c5ccc(NCc6cnc7nc(N)nc(O)c7n6)cc5)nn4)nc3)nc2c(N[C@H](C)c2cc(C#N)ccc2F)c1Cl [Compound I-21, (S)-16-(4-(((2-amino-4-hydroxypteridin-6-yl)methyl)amino)benzamido)-1-(1-(5-((5-(7-chloro-8-(((R)-1-(5-cyano-2-fluorophenyl)ethyl)amino)-3-fluoro-6-methyl-1,5-naphthyridin-2-yl)pyrimidin-2-yl)oxy)pentyl)-1H-1,2,3-triazol-4-yl)-15-oxo-2,5,8,11-tetraoxa-14-azanonadecan-19-oic acid]

Structure (SMILES): Cc1nc2cc(F)c(-c3cnc(OCCCCCn4cc(COCCOCCNC(=O)CC[C@H](NC(=O)c5ccc(NCc6cnc7nc(N)nc(O)c7n6)cc5)C(=O)O)nn4)nc3)nc2c(N[C@H](C)c2cc(C#N)ccc2F)c1Cl [Compound I-16, N2-(4-(((2-amino-4-hydroxypteridin-6-yl)methyl)amino)benzoyl)-N5-(2-(2-((1-(5-((5-(7-chloro-8-(((R)-1-(5-cyano-2-fluorophenyl)ethyl)amino)-3-fluoro-6-methyl-1,5-naphthyridin-2-yl)pyrimidin-2-yl)oxy)pentyl)-1H-1,2,3-triazol-4-yl)methoxy)ethoxy)ethyl)-L-glutamine]
binding mode from SPR sensorgrams (TNFα trimer; FIGS. 2A-2C): 1:1 binding
Kd (TNFα trimer; [4]): 50.2 nM
Rmax (TNFα trimer; [4]): 43.7 RU
kd (TNFα trimer; [4]): 5.81e-05 s⁻¹
Stoichiometry (TNFα trimer; SPR, Rmax versus expected Rmax): 0.7
kon (TNFα trimer): 1160 M⁻¹ s⁻¹

degradation and rescue of TNFα (TNFα [2]): mediated degradation and rescue of TNFα
Structure (SMILES): Cc1nc2cc(F)c(-c3cnc(OCCCCCn4cc(COCCOCCOCCOCCNC(=O)CC[C@H](NC(=O)c5ccc(NCc6cnc7nc(N)nc(O)c7n6)cc5)C(=O)O)nn4)nc3)nc2c(N[C@H](C)c2cc(C#N)ccc2F)c1Cl [Compound I-17, (S)-18-(4-(((2-amino-4-hydroxypteridin-6-yl)methyl)amino)benzamido)-1-(1-(5-((5-(7-chloro-8-(((R)-1-(5-cyano-2-fluorophenyl)ethyl)amino)-3-fluoro-6-methyl-1,5-naphthyridin-2-yl)pyrimidin-2-yl)oxy)pentyl)-1H-1,2,3-triazol-4-yl)-15-oxo-2,5,8,11-tetraoxa-14-azanonadecan-19-oic acid]
uptake of labelled TNFα (median fluorescence intensity of pHrodo dye) (TNFα [1]): stimulated uptake of labelled TNFα in THP-1 cells in a dose-dependent manner
rate of depletion of HiBiT-TNFα from medium (TNFα [3]; first 24 hours): more rapid depletion of HiBiT-TNFα over the first 24 hours
total depletion of HiBiT-TNFα from the culture medium (TNFα [3]; sampled to 96 hr): greater total depletion of HiBiT-TNFα from the culture medium
